Data on seven compounds can be found in patent publication US20090325259A1, “USE OF ADHESION MOLECULES AS BOND STRESS-ENHANCED NANOSCALE BINDING SWITCHES” (priority 2002, published 2009).

Series [1] has as its system E. coli bacteria expressing f18-FimH. Nature of the series: Parallel plate flow chamber, E. coli on surfaces coated with purified components. The class given is binding. As to conditions: for Effect of shear on accumulation of E. coli on coated surface (in words): 0.12 to 20 dynes/cm^2. As to the method:
Parallel plate flow chamber experiments. Dishes coated with purified components were prepared by incubating 35 mm tissue culture dishes with […] of either 200 mg/ml man-BSA, 200 mg/ml gal-BSA, or a 50,000-fold dilution of polyclonal anti-FimH antiserum in 0.02M bicarbonate buffer for 75 minutes at 37 C, and then washing three times with phosphate-buffered […] with 0.1% BSA (PBS-BSA). The dishes were then inserted into a 2.5 cm×0.25 cm×[…] parallel plate flow chamber (GlycoTech). Bacteria expressing f18-FimH were prepared as described previously (W. E. Thomas, E. Trintchina, M. Forero, V. Vogel, E. V. Sokurenko, Cell 109:913-23 (Jun. 28, 2002)), and brought to 108 cfu/ml in PBS-BSA. 2% alpha-monomannose was added to the PBS-BSA in the studies of surfaces coated with anti-FimH antibodies in order to inhibit any potential mannose-specific interaction between the bacteria and the carbohydrate modifications on the antibodies. This solution of bacteria was flowed through the chamber using a Harvard syringe pump at various shear rates. The bound bacteria were recorded using a Nikon inverted microscope with a 10× phase-contrast objective, a Roper Scientific high-resolution CCD camera, and MetaMorph video acquisition software. The field of view was […] with a resolution of […] per pixel. Even when 400 bacteria bound per field of view, they covered only 1% of the surface area, so that any interactions between bacteria were minimal.
Videos of bound bacteria were analyzed using MetaMorph imaging software. Total bound bacteria in an image appeared as dark spots in phase-contrast and were counted using the automated cell counting package in MetaMorph. The moving bacteria in an image were identified by subtracting an image from another taken one second earlier so that the bacteria that moved after the first image appear as dark spots that can be counted (FIG. 1, FIG. 3A, FIG. 4). This number was compared to the total number originally counted in the first image to give the fraction of bacteria that moved (FIGS. 1B 3C 3D. The movement may represent detachment or rolling. In FIG. 3B where even detached bacteria were visible due to the short shutter speed and low flow rate, bacteria were classified as detached when they moved faster than the hydrodynamic velocity (the shear rate times the bacterial radius of […]), as stationary if they moved less than one pixel (the size of the larger fluctuations in bacterial position over time that occurred with no net movement), and as rolling for anything in between.
Bacterial adhesion and accumulation is the first step in colonizing, and in many cases infecting target tissues. In order to determine the mechanism which allows bacteria to adhere to target tissues under shear, we studied the kinetics by which E. coli bacteria attach and detach from 1Man-coated surfaces, and how the attachment and detachment behavior depends on shear. Recombinant type I fimbriated E. coli bacteria were used that expressed a variant of the adhesion FimH. […] This FimH variant is found in commensal E. coli strains, including the strain F-18 used in our study. Mannosylated bovine serum albumin (1Man-BSA) was adsorbed to glass to prepare chemically controlled model surfaces that expose only 1Man in contrast to using red blood cells that present additional ligands and receptors that might interacting with E. coli. […] A suspension of E. coli cells was passed through a flow chamber coated with 1Man and the binding of bacteria to the surface under various shear conditions was determined. Using a long (2 second) camera shutter time to blur out the free floating cells, we measured the accumulation of stationary bacteria bound to the surface after a period of five minutes at a range of physiologically relevant shear stresses, from 0.12 to 20 dynes/cm^2 (FIG. 6, triangles). […] This is consistent with previous reports of poor binding of this strain to 1Man in the absence of shear.

Another series deals with f-18 fimbriae (FimH) (Escherichia coli, UniProt P08191, N91S/S99N/V48A). As to conditions: 6 μm PS beads.
In series [2] the test system is guinea pig red blood cells (RBCs). Nature of the series: RBC rosette-formation assay (static agglutination). Type of series: cell-based. Particulars: for RBC agglutination under static conditions (in words): static rosette-formation assay. As to the method: (§1) Assays of bacterial adhesion to Man1-BSA and bovine RNAseB immobilized in 96-well plates were carried out as described previously (Sokurenko et al., 1995). Briefly, Man1-BSA and bovine RNAseB were dissolved at 20 μg/ml in 0.02 M bicarbonate buffer, and 100 μl aliquots were incubated in microtiter wells for 1 hr at 37° C. The wells were then washed three times with PBS and quenched with 0.1% BSA in PBS. 3H-thymidine-labeled bacteria were added in 0.1% BSA in PBS and incubated for 40 min at 37° C. without shaking to achieve saturation, and the wells were then washed with PBS. The individual wells were subjected to scintillation counting. The density of bacteria used in all assays was 5×10^7 colony forming units per 100 μl. RBC rosette-formation assay was performed by mixing equal amounts of serially diluted bacterial suspensions (starting from OD540 nm=1.0) and a 1% suspension of RBC in U-bottom microtiter plate wells. On-slide agglutination assays were performed by mixing the suspension of RBC and bacteria on a slide surface followed by rocking at ˜3 s^−1.
(§2) Two commonly used RBC agglutination assays were performed that utilize different shear conditions. […] If no agglutination occurs, RBCs fall into a pellet in the bottom of the well (FIG. 15A), while agglutination results in a rosette of RBCs crosslinked by bacteria. […] After three minutes without rocking, the aggregate loosened (FIG. 15C).

The test system is the same in series [3]. Nature of the series: Parallel plate flow chamber, RBCs on carpet of FimH-expressing E. coli. Type of series: cell-based. As to conditions: for Adhesion of RBCs to bacterial carpet under low shear: 0.01 to 0.14 dynes/cm^2. Here is the method:
Bacteria-coated dishes were prepared as follows: 35 mm tissue culture dishes were incubated with 20 μg/ml RNAse B in 0.02 M bicarbonate buffer for 1 hr at 37° C. and washed three times in PBS with 0.1% BSA (PBS-BSA). The dishes were then incubated with 200 μl PBS-BSA containing 108 colony-forming units of E. coli for 1 hr at 37° C. and washed three times. […] The dishes were then placed under a Glycotech parallel plate flow chamber with a size B gasket (2.5 cm×0.25 cm×250 μm) and sealed with vacuum. A Harvard model #975 pulse-free syringe pump was used to pump fluid through the chamber. The dishes were equilibrated in the flow chamber with PBS-BSA, and a 0.1% solution of RBC was injected into the chamber, allowed to settle onto the bacterial carpet, and washed with PBS-BSA at a shear stress of about 0.5 dynes/cm^2 until all free cells had been removed from the chamber and upstream tubing. The volumetric flow was then reduced to bring the shear stress down to 0.01-0.02 dynes/cm^2, and the shear stress was stepped up 2-fold, with at least 3 min at each shear stress.
RBC movement was recorded using phase contrast microscopy with a 20× objective, a CCD camera, and Metamorph video imaging software by Universal Imaging. Videos were recorded at 1 frame every 2 s for a total of 3 min at each shear rate. The position of each RBC was tracked at 6 s intervals in these videos using Metamorph's point tracking plug-in. The average velocity for each cell was calculated from these positions over the 3 min at each shear. These were then averaged for the average velocity of all cells. Some cells detached completely at the low shear stress and moved at the fluid velocity. (A cell moving in flow near a surface has velocity approximately equal to the cell radius, 5 μm, times the shear rate, assuming it is almost touching the surface.) Since these times reflected movement without any bond detachment, these time intervals were removed from the analysis for each cell. We only analyzed cells that were attached and in the field of view at the start of the 3 min time frame. The off-rate of RBCs was calculated from the X, the percent of original RBCs remaining bound at time t, using the formula k=1/t·ln(1/X), and using t=3 min. This assumes that detachment is independent and governed by a single rate constant, and X=e−kt, so that the number of remaining RBCs decays exponentially.
To establish whether the differential pattern of RBC agglutination observed in example 1 was due to a distinct ability of shear to enhance adhesion of type I fimbriated bacteria to RBCs, we studied the adhesion of low- and high-Man1 binding variants to RBCs under well-defined shear conditions. Previous studies on the effect of shear on selectin or von Willebrand factor-mediated adhesion of lymphocytes and platelets have used flow chambers (Finger et al., 1996; Marchese et al., 1999). Using a similar approach, we immobilized bacteria expressing either FimH-f18 or FimH-j96 on the surface of a flow chamber coated with bovine 3Man-RNaseB, a model trimannose-containing substrate to which both FimH variants bind with equal affinity (see Table 1A). In brief, RBCs were allowed to bind to the bacterial carpet, and the unbound cells were removed by rinsing under moderate fluid flow shear (0.28 to 0.90 dynes/cm^2). RBCs that remained attached to the bacterial carpet were then subjected to various shear conditions.

For series [4] the test system is unchanged. Nature of the series: On-slide RBC agglutination with rocking (dynamic). The class given is cell-based. Here is the method: as §1, §2
Setting [5] is: switch from 5 to 0.12 dynes/cm^2.

Sequence of f-18 fimbriae (FimH) (P08191 22-300 V48A/N91S/S99N): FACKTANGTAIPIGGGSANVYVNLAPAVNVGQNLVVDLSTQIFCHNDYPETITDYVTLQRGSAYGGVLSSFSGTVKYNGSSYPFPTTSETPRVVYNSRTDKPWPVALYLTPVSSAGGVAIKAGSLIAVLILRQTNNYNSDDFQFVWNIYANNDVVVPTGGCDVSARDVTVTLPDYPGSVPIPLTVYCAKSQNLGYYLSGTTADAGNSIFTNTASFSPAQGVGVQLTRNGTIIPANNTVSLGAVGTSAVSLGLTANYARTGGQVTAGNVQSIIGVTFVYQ
Sequence of f-18 fimbriae (FimH) (P08190 24-167 partner): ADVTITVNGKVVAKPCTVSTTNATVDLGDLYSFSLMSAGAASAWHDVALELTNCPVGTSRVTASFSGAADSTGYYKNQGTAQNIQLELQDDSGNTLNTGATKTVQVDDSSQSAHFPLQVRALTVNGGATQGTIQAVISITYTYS
Sequence of f-18 fimbriae (FimH) (P08189 21-176 partner): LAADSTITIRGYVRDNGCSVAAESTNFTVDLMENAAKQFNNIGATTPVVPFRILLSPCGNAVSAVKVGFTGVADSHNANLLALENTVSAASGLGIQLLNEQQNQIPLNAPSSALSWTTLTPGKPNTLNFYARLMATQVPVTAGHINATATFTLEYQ
Sequence of f-18 fimbriae (FimH) (P04128 24-182 partner): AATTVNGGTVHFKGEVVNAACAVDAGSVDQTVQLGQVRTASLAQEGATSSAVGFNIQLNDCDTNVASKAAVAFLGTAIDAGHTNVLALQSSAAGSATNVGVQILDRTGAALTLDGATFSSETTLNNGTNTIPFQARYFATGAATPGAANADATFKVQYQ
Procedure for f-18 fimbriae (FimH): Physisorption of fimbriae to PS plates: 35 mm Coming (#430165) tissue culture dishes were incubated with purified fimbriae diluted 500 fold in 0.02M bicarbonate buffer at 37° C. for 1 hour, and then washed thrice in PBS with 0.1% BSA (PBS-BSA) to prevent nonspecific adhesion by the beads or RBCs to the dish.
Bead coating by 1Man-BSA: Polystyrene microspheres were prepared by rotating a solution of 50 μl of 2.6% beads mixed with 150 μl of 20-200 μg/ml receptor in 0.02M Bicarbonate buffer for one hour at room temperature. Then they were spun twice and resuspended in fresh PBS-BSA. They were finally diluted down to 0.1% and injected in the chamber.
Parallel plate flow chamber experiments: The coated dishes served as the bottom plate in parallel plate flow chamber from Glycotech #31-0001 (Rockville, Md.) using a silicon rubber gasket 20 mm long, 2.5 mm wide and 0.010 in thick. […] The movement of the beads and RBCs was recorded using an inverted Nikon TE 2000 microscope with a long working distance 10× phase contrast objective by means of a Roper Scientific (Duluth, Ga.) Cascade CCD camera.
Data Analysis: Images of the flow chamber were recorded every 3 seconds for 3 minutes at each shear rate. […] The expected free flowing velocity was calculated by multiplying the shear rate by the radius of the particle, assuming that it is barely touching the surface. […]

Turning to “1Man-BSA: monomannose (1Man) conjugated to Bovine Serum Albumin”, the “Effect of shear on accumulation of E. coli on coated surface (in words)” value in series [1] was “shear enhances the adhesion”. The “Number of initial attachments in the field of view” value was found to be 102 attachments per minute in series [1] (0.5 dynes/cm^2), 64 attachments per minute in series [1] (3.6 dynes/cm^2) and 32 attachments per minute in series [1] (7 dynes/cm^2). Further, the “Increase of E. coli accumulation on coated surface” value in series [1] (5 dynes/cm^2) is reported as 100 -fold. Also, in series [1] (at the peak of the accumulation curve), the “Rolling velocity of surface-bound bacteria” value is recorded as “about 30 mm per second”. In addition, the “Accumulation of E. coli on coated surface, fold higher binding” value in series [1] (peaking at around 3-5 dynes/cm^2, five minutes) is “over 100 -fold”. Moreover, the “First-order rate constant for the switch from rolling to detached” value in series [1] (setting [5]) is 3 s⁻¹. In addition, in series [1] (setting [5]), the “First-order rate constant for the switch from stationary to rolling” value is 0.09 s⁻¹. The “Binding of coated beads to carpet of fimbriae (in words)” value with f-18 fimbriae (FimH) is listed as “shear-activated binding”. Besides, the “Shear stress at which bead velocity starts to drop” value with f-18 fimbriae (FimH) is recorded as 0.03 pN/μm^2.
As to `COC1O[C@H](CO)[C@@H](O)[C@H](O)[C@@H]1O` (stereo partly drawn) [α-methyl-mannoside, reference compound], the “Inhibition of RBC agglutination by α-methyl-mannoside” value in series [2] (50 mM, in all assays (static and dynamic)) was “inhibitable”. In addition, in series [3] (50 mM), the “Inhibition of original attachment of RBCs to bacteria” value was “could be inhibited”.
Consider “FimH-f18: low-Man1 binding natural FimH variant from intestinal E. coli strain F18, expressed on type I fimbriated recombinant bacteria”, for which the “RBC agglutination under static conditions (in words)” value (“RBC agglutination … (in words)” for short) in series [2] is “unable to mediate RBC agglutination”. For the same compound, in series [4] (after rocking was stopped), the “Time after rocking was stopped within which aggregates began to dissipate” value is listed as at most 3 min. Besides, in series [4] (bacteria 10-fold diluted), the “RBC aggregate formation in rocking assay with diluted bacteria” value was “still formed aggregates”. Moreover, the “Off-rate of RBCs from bacterial carpet” value in series [3] (0.14 dynes/cm^2) was 0.002 min⁻¹; in series [3] (0.2 to 0.4 dynes/cm^2, on average), 0.1 min⁻¹; in series [3] (0.7 dynes/cm^2), 0.03 min⁻¹; in series [3] (shear stresses above 0.2 dynes/cm^2), “too low to measure”. Besides, in series [3], the “Adhesion of RBCs to bacterial carpet under low shear” value is recorded as “bind weakly”. Also, the “Adhesion of RBCs to bacterial carpet under moderate shear” value in series [3] (moderate shear, 0.28 to 0.90 dynes/cm^2) is “firmly adhered”.
On to “FimH-j96: natural FimH variant of uropathogenic E. coli strain J96; differs from FimH-f18 by A27V, S70N, N78S”, for which the “Dilution of bacteria up to which RBC rosettes formed” value in series [2] (static conditions) is given as ≤ 8 -fold dilution. Besides, the “RBC agglutination … (in words)” value in series [2] was “able to agglutinate RBC in static conditions”. Also, the “Stability of RBC aggregates after rocking was halted” value in series [4] (after rocking was halted) is reported as “remained stable indefinitely long”. In addition, in series [4] (highest concentration of bacteria (10^9 bacteria/ml)), the “Time for RBCs to form tight clumps in dynamic rocking assay” value was 35 ± 2 s. Further, the “Adhesion of RBCs to bacterial carpet under low shear” value in series [3] is recorded as “adhered firmly”.
Consider “Q32L: single Q32L mutation, effect stated in the FimH-j96 background”, for which the “RBC agglutination … (in words)” value in series [2] is reported as “eliminated the ability of the bacteria to agglutinate RBCs under static conditions”.
As to “S124A: single S124A mutation, effect stated in the FimH-j96 background”, the “RBC agglutination … (in words)” value in series [2] was “eliminated the ability of the bacteria to agglutinate RBCs under static conditions”.
On to “galactosylated BSA: negative control galactosylated BSA; galactose is not specifically recognized by FimH”, for which, in series [1], the “Effect of shear on accumulation of E. coli on coated surface (in words)” value is given as “essentially no bacteria bound at any shear”.
